Patent US4507318A, “1-Aryl 2-aminomethyl cyclopropane carboxylates (Z) as drugs in the treatment of pain” (Pierre Fabre S.A., priority 1981, dated 1985)
Where a name gives a salt, the structure may show the parent alone.

Assays:
Solubility in water = type: physicochemical
Solubility in DMA = type: physicochemical

Row | SMILES | Solubility in water (in words) (Solubility in water) | Solubility in DMA (Solubility in DMA) [%]
1 | CCOC(=O)[C@]1(c2ccccc2)C[C@@H]1CN(Cc1ccccc1)Cc1ccccc1 (relative stereo) [Example 11, Hydrochloride of 1-phenyl-1-ethoxycarbonyl 2-dibenzyl amino-methyl cyclopropane (Z)] | insoluble in water | 2
2 | CCOC(=O)[C@]1(c2ccccc2)C[C@@H]1CN(C)C1CCCCC1 (relative stereo) [Example 19, Fumarate of 1-phenyl 1-ethoxycarbonyl 2-N-methyl-N-cyclohexyl-aminomethyl cyclopropane (Z)] | insoluble in water | 5
3 | CCOC(=O)[C@]1(c2ccccc2)C[C@@H]1CN1CCC(c2ccccc2)CC1 (relative stereo) [Example 20, Hydrochloride of 1-phenyl 1-ethoxycarbonyl 2-(4'-phenylpiperidino)methyl cyclopropane (Z)] | insoluble in water | 50
